# Values of other authors, collected in patent publication US8608968B2, “Compositions for bioremediation and methods for using” (Carus Corporation, priority 2006, dated 2013).
# Conditions: dimensionless
row,SMILES,Henry's Law Constant
1,C=C [Ethene],8.76
2,C [Methane],27.2
3,ClC=C(Cl)Cl [Trichloroethene],0.48
4,C=CCl [Vinyl chloride],0.95
5,"Cl/C=C\Cl [cis-1,2-dichloroethene]",0.31
